# Test results taken from US4353923A, “Pharmaceutical composition containing a benzofurancarboxamide derivative as the active ingredient” (Kyowa Hakko Kogyo Co., Ltd., priority 1980, dated 1982).
# Tests used:
# [1] = test system: male dd mice; test: Muscle relaxant activity: traction test; format: in vivo; settings: 5 mice per group
# Description: (§1) In this example, 5 male dd mice weighing 20±1 g were used as one group. Prior to the experiments, mice were placed on the rod having a diameter of 3 cm and rotating at 5 r.p.m. in the reverse direction of the rotation. […] The drugs were orally administered and the muscle relaxant activity with the passage of time was examined by the following tests.
# Traction test: Forefeet of the same mouse were placed on a wire to observe whether it falls or not.
# (§2) In each test, the drug was considered to have a muscle relaxant activity when the mouse fell.
# [2] = test system: male dd mice; test: Anticonvulsant activity: maximal electroshock convulsion test; format: in vivo; settings: Mus musculus, po, 1 h, 60 min after administration, read-out: Maximal electroshock convulsion test, inhibition ratio; for responders at 25 mg/kg: 25 mg/kg p.o.; for responders at 50 mg/kg: 50 mg/kg p.o.; for responders at 75 mg/kg: 75 mg/kg p.o.; for responders at 100 mg/kg: 100 mg/kg p.o.
# Description: Anticonvulsant activity was examined according to maximal electroshock convulsion test.
# In this experiment, 10 male dd mice weighing 23±1 g were used as one group. Each drug was orally administered to the animals. Sixty minutes after the administration, an electric current (2000 V, 50 mA) was applied to both eyes of the mouse for 0.2 second. Drug activity was judged according to whether tonic extensor seizures were observed or not.
# [3] = in vivo; settings: mouse, po, mice, deaths counted for 7 days
# Description: In this example, 3-7 male dd mice weighing 20±1 g were used as one group. Each drug was suspended in a 0.3% CMC solution and orally administered. After the administration, number of dead animals was counted for 7 days to determine LD50 value. As the reference drugs, mepirizole and benzydamine hydrochloride were dissolved in water and orally administered. The drugs and the reference drugs were also administered in the same manner as above in Examples 2-5.
# [4] = test system: male dd mice; test: Muscle relaxant activity: rotating rod test; format: in vivo; settings: 5 mice per group
# Description: as §1
# Rotating rod test: The same mouse was placed on the rotating rod to observe whether it falls or not within 2 minutes.
# as §2
# [5] = test system: male dd mice; test: Muscle relaxant activity: slant test; format: in vivo; settings: 5 mice per group
# Description: as §1
# Slant test: Each mouse was placed on a wire net inclined at an angle of 45° to observe whether it falls or not.
# as §2
# [6] = test system: male Wistar rats; test: Anti-inflammatory activity: carrageenin edema method; format: in vivo; settings: Rattus norvegicus, po, 3 hours after carrageenin, read-out: Inhibition ratio (paw swelling, vs control); for inhibition in vivo at 150 mg/kg: 150 mg/kg p.o.
# Description: In this experiment, 5 male Wistar rats weighing 140±10 g were used as one group. Sixty minutes after oral administration of each drug to each animal, 0.1 ml of a 1% carrageenin solution as a phlogistic agent was injected into the plantar surface of the right hind paw of the animal to induce inflammation. The volume of the paw was measured before and 3 hours after the injection of the phlogistic agent. Swelling ratio and inhibition ratio in comparison with control group were calculated.
# [7] = test system: male dd mice; test: Analgesic activity: acetic acid writhing; format: in vivo; settings: Mus musculus, po, 1 h, acetic acid i.p. after 60 min, read-out: Inhibition ratio (writhes, vs control); for inhibition in vivo at 50 mg/kg: 50 mg/kg p.o.; for inhibition in vivo at 150 mg/kg: 150 mg/kg p.o.
# Description: In this experiment, 10 male dd mice weighing 20±1 g were used as one group for examination of analgesic activity. Sixty minutes after oral administration of each drug to each animal, 0.2 ml of a 0.7% acetic acid solution was intraperitoneally administered to the animal. Starting 10 minutes after the administration of acetic acid, the number of writhes occurred in 10 minutes was counted. Average number of writhes and inhibition ratio in comparison with control group were calculated.
smiles,measurement,setting,value
"Cc1c(C(=O)N(C)C)oc2cc(Cl)ccc12 [Compound (B), 6-Chloro-N,N,3-trimethyl-benzo[b]furan-2-carboxamide]","Number of dropped mice, traction test","[1]; 75 mg/kg p.o., 1 hr",3 mice
same,"Number of dropped mice, traction test","[1]; 75 mg/kg p.o., 2 hr",4 mice
same,"Number of dropped mice, traction test","[1]; 75 mg/kg p.o., 3 hr",2 mice
same,"Number of dropped mice, traction test","[1]; 150 mg/kg p.o., 1 hr",5 mice
same,"Number of dropped mice, traction test","[1]; 150 mg/kg p.o., 2 hr",5 mice
same,"Number of dropped mice, traction test","[1]; 150 mg/kg p.o., 3 hr",5 mice
same,responders at 25 mg/kg,[2],0%
same,responders at 50 mg/kg,[2],40%
same,responders at 75 mg/kg,[2],60%
same,LD50 at 168 h,[3],500 to 1000 mg/kg
same,"Number of dropped mice, rotating rod test","[4]; 75 mg/kg p.o., 1 hr",5 mice
same,"Number of dropped mice, rotating rod test","[4]; 75 mg/kg p.o., 2 hr",4 mice
same,"Number of dropped mice, rotating rod test","[4]; 75 mg/kg p.o., 3 hr",4 mice
same,"Number of dropped mice, rotating rod test","[4]; 150 mg/kg p.o., 1 hr",5 mice
same,"Number of dropped mice, rotating rod test","[4]; 150 mg/kg p.o., 2 hr",5 mice
same,"Number of dropped mice, rotating rod test","[4]; 150 mg/kg p.o., 3 hr",5 mice
same,"Number of dropped mice, slant test","[5]; 300 mg/kg p.o., 1 hr",5 mice
same,"Number of dropped mice, slant test","[5]; 300 mg/kg p.o., 2 hr",5 mice
same,"Number of dropped mice, slant test","[5]; 300 mg/kg p.o., 3 hr",5 mice
same,inhibition in vivo at 150 mg/kg,[6],39.8%
same,inhibition in vivo at 50 mg/kg,[7],34.9%
same,inhibition in vivo at 150 mg/kg,[7],95.4%
"Cc1c(C(=O)N(C)C)oc2c(Cl)cccc12 [Compound (C), 7-chloro-N,N,3-trimethylbenzo[b]furan-2-carboxamide]","Number of dropped mice, traction test","[1]; 25 mg/kg p.o., 1 hr",0 mice
same,"Number of dropped mice, traction test","[1]; 25 mg/kg p.o., 2 hr",0 mice
same,"Number of dropped mice, traction test","[1]; 25 mg/kg p.o., 3 hr",0 mice
same,"Number of dropped mice, traction test","[1]; 50 mg/kg p.o., 1 hr",5 mice
same,"Number of dropped mice, traction test","[1]; 50 mg/kg p.o., 2 hr",4 mice
same,"Number of dropped mice, traction test","[1]; 50 mg/kg p.o., 3 hr",1 mice
same,"Number of dropped mice, traction test","[1]; 100 mg/kg p.o., 1 hr",5 mice
same,"Number of dropped mice, traction test","[1]; 100 mg/kg p.o., 2 hr",5 mice
same,"Number of dropped mice, traction test","[1]; 100 mg/kg p.o., 3 hr",5 mice
same,responders at 25 mg/kg,[2],40%
same,responders at 50 mg/kg,[2],66.7%
same,responders at 75 mg/kg,[2],80%
same,responders at 100 mg/kg,[2],100%
same,LD50 at 168 h,[3],> 1000 mg/kg
same,"Number of dropped mice, rotating rod test","[4]; 25 mg/kg p.o., 1 hr",3 mice
same,"Number of dropped mice, rotating rod test","[4]; 25 mg/kg p.o., 2 hr",1 mice
same,"Number of dropped mice, rotating rod test","[4]; 25 mg/kg p.o., 3 hr",0 mice
same,"Number of dropped mice, rotating rod test","[4]; 50 mg/kg p.o., 1 hr",5 mice
same,"Number of dropped mice, rotating rod test","[4]; 50 mg/kg p.o., 2 hr",5 mice
same,"Number of dropped mice, rotating rod test","[4]; 50 mg/kg p.o., 3 hr",2 mice
same,"Number of dropped mice, rotating rod test","[4]; 100 mg/kg p.o., 1 hr",5 mice
same,"Number of dropped mice, rotating rod test","[4]; 100 mg/kg p.o., 2 hr",5 mice
same,"Number of dropped mice, rotating rod test","[4]; 100 mg/kg p.o., 3 hr",5 mice
same,"Number of dropped mice, slant test","[5]; 50 mg/kg p.o., 1 hr",5 mice
same,"Number of dropped mice, slant test","[5]; 50 mg/kg p.o., 2 hr",4 mice
same,"Number of dropped mice, slant test","[5]; 50 mg/kg p.o., 3 hr",1 mice
same,"Number of dropped mice, slant test","[5]; 100 mg/kg p.o., 1 hr",5 mice
same,"Number of dropped mice, slant test","[5]; 100 mg/kg p.o., 2 hr",5 mice
same,"Number of dropped mice, slant test","[5]; 100 mg/kg p.o., 3 hr",5 mice
same,inhibition in vivo at 150 mg/kg,[6],35.1%
same,inhibition in vivo at 300 mg/kg,[6]; 300 mg/kg p.o.,57.8%
same,inhibition in vivo at 50 mg/kg,[7],85.3%
same,inhibition in vivo at 150 mg/kg,[7],100%
"Cc1c(C(=O)N(C)C)oc2ccc(F)cc12 [Compound (D), 5-Fluoro-N,N,3-trimethyl-benzo[b]furan-2-carboxamide]","Number of dropped mice, traction test","[1]; 50 mg/kg p.o., 1 hr",0 mice
same,"Number of dropped mice, traction test","[1]; 50 mg/kg p.o., 2 hr",0 mice
same,"Number of dropped mice, traction test","[1]; 50 mg/kg p.o., 3 hr",0 mice
same,"Number of dropped mice, traction test","[1]; 75 mg/kg p.o., 1 hr",2 mice
same,"Number of dropped mice, traction test","[1]; 75 mg/kg p.o., 2 hr",1 mice
same,"Number of dropped mice, traction test","[1]; 75 mg/kg p.o., 3 hr",0 mice
same,"Number of dropped mice, traction test","[1]; 100 mg/kg p.o., 1 hr",2 mice
same,"Number of dropped mice, traction test","[1]; 100 mg/kg p.o., 2 hr",1 mice
same,"Number of dropped mice, traction test","[1]; 100 mg/kg p.o., 3 hr",0 mice
same,"Number of dropped mice, traction test","[1]; 150 mg/kg p.o., 1 hr",4 mice
same,"Number of dropped mice, traction test","[1]; 150 mg/kg p.o., 2 hr",3 mice
same,"Number of dropped mice, traction test","[1]; 150 mg/kg p.o., 3 hr",2 mice
same,responders at 50 mg/kg,[2],10%
same,responders at 75 mg/kg,[2],40%
same,responders at 100 mg/kg,[2],90%
same,LD50 at 168 h,[3],700 to 1000 mg/kg
same,"Number of dropped mice, rotating rod test","[4]; 50 mg/kg p.o., 1 hr",0 mice
same,"Number of dropped mice, rotating rod test","[4]; 50 mg/kg p.o., 2 hr",0 mice
same,"Number of dropped mice, rotating rod test","[4]; 50 mg/kg p.o., 3 hr",0 mice
same,"Number of dropped mice, rotating rod test","[4]; 75 mg/kg p.o., 1 hr",3 mice
same,"Number of dropped mice, rotating rod test","[4]; 75 mg/kg p.o., 2 hr",1 mice
same,"Number of dropped mice, rotating rod test","[4]; 75 mg/kg p.o., 3 hr",0 mice
same,"Number of dropped mice, rotating rod test","[4]; 100 mg/kg p.o., 1 hr",5 mice
same,"Number of dropped mice, rotating rod test","[4]; 100 mg/kg p.o., 2 hr",3 mice
same,"Number of dropped mice, rotating rod test","[4]; 100 mg/kg p.o., 3 hr",1 mice
same,"Number of dropped mice, rotating rod test","[4]; 150 mg/kg p.o., 1 hr",5 mice
same,"Number of dropped mice, rotating rod test","[4]; 150 mg/kg p.o., 2 hr",5 mice
same,"Number of dropped mice, rotating rod test","[4]; 150 mg/kg p.o., 3 hr",3 mice
same,"Number of dropped mice, slant test","[5]; 150 mg/kg p.o., 1 hr",4 mice
same,"Number of dropped mice, slant test","[5]; 150 mg/kg p.o., 2 hr",4 mice
same,"Number of dropped mice, slant test","[5]; 150 mg/kg p.o., 3 hr",1 mice
same,inhibition in vivo at 150 mg/kg,[6],34%
same,inhibition in vivo at 50 mg/kg,[7],44.2%
same,inhibition in vivo at 150 mg/kg,[7],95.4%
